Consider two compounds from patent publication US5912248A, “Excitatory amino acid receptor antagonists” (Eli Lilly and Company, priority 1996, dated 1999).

The test system of this test is metabotropic glutamate receptors. As to the kind of experiment: displacement of 1S,3R-ACPD-sensitive [^3 H]glutamate binding to rat brain cell membranes. Conditions: crude membranes of rat forebrain. How it is done: The binding of [^3 H]glutamate was conducted with crude membranes of rat forebrain as described by Schoepp and True, Neuroscience Lett., 145, 100-104 (1992) and Wright et al., J. Neurochemistry 63, 938-945, 1994.

pIC50: −log10 of the molar value.

Usually pIC50 stands for the IC50 on a negative log10 scale, so that one unit is a factor of ten. A higher pIC50 goes with a low IC50. As to `NC1(C(=O)O)CC(Sc2ccccc2)C2C(C(=O)O)C21` (stereo not drawn) [Example 1, 1SR,2RS,4SR,5SR,6SR-2-Amino-4-(phenylthio)bicyclo[3.1.0]hexane-2,6-dicarboxylic acid], the pIC50 was 6.62.
For `NC1(C(=O)O)CC(SCc2ccco2)C2C(C(=O)O)C21` (stereo not drawn) [Example 8, 1SR,2RS,4RS,5SR,6SR-2-Amino-4-((2-furanylmethyl)thio)bicyclo[3.1.0]hexane-2,6-dicarboxylic acid], the “activity in the binding test (in words)” value was “essentially inactive”.
